# How the values were obtained:
# c-kit kinase = molecular target: T1, c-kit kinase (Homo sapiens, UniProt P10721); assay: c-Kit biochemical assay, AlphaScreen, 10 μM ATP; conditions: c-kit biochemical inhibitory activity; read-out: Biochemical activity (IC50 μM) Kit
# T1 construct: The c-kit (or kinase domain thereof) is an active kinase in AlphaScreen; poly-Histidine tag (in-house protein only) (cleaved yes); host or cells: E. coli BL21(DE3)RIL, co-expressed with PTP1B
# Method in brief: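 His-tagged c-Kit expressed in E. coli with co-expressed PTP1B (dephosphorylated), tag removed; 0.1 ng per reaction with biotinylated-peptide substrate in 50 mM HEPES pH 7.2, 5 mM MgCl2, 5 mM MnCl2, 5% DMSO, 10 μM ATP, 1 h at room temperature. Phosphorylation detected by AlphaScreen (streptavidin donor, PY20 acceptor beads); IC50 from 8-point 1:3 dilution series.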
# c-kit mutant D816V = molecular target: T2, c-kit mutant D816V (Homo sapiens, UniProt P10721, D816V/DEL694-753); assay: c-Kit mutant D816V biochemical assay, AlphaScreen; conditions: c-kit D816V biochemical inhibitory activity; read-out: Biochemical activity (IC50 μM) Kit D816V
# T2 construct: residues 551-934, kinase insertion domain residues 694-753 deleted; 6x-histidine (N); made in house; host or cells: E. coli Arctic Express (DE3) RIL (Stratagene)
# Method in brief: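 Eight-point, threefold compound series incubated 30 min at room temperature with E. coli-produced D816V kinase, 10 μM ATP, Mg2+/Mn2+ HEPES buffer pH 7.2 and 5% DMSO. After EDTA stop, streptavidin and anti-phosphotyrosine (PY20) AlphaScreen beads gave the read-out, and IC50 was fitted from the concentration–signal curve.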
# T2 sequence (P10721 with tags, fused parts or gaps DEL694-753/D816V): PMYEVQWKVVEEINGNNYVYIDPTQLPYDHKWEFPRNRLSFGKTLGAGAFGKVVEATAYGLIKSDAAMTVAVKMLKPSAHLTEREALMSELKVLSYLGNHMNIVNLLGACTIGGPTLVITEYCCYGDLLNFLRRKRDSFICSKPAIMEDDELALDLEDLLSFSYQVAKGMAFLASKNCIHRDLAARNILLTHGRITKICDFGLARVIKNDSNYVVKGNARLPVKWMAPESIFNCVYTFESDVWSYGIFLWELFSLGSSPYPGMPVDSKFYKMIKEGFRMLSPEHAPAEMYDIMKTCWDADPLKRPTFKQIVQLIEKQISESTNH
# T1 sequence (P10721 26-976): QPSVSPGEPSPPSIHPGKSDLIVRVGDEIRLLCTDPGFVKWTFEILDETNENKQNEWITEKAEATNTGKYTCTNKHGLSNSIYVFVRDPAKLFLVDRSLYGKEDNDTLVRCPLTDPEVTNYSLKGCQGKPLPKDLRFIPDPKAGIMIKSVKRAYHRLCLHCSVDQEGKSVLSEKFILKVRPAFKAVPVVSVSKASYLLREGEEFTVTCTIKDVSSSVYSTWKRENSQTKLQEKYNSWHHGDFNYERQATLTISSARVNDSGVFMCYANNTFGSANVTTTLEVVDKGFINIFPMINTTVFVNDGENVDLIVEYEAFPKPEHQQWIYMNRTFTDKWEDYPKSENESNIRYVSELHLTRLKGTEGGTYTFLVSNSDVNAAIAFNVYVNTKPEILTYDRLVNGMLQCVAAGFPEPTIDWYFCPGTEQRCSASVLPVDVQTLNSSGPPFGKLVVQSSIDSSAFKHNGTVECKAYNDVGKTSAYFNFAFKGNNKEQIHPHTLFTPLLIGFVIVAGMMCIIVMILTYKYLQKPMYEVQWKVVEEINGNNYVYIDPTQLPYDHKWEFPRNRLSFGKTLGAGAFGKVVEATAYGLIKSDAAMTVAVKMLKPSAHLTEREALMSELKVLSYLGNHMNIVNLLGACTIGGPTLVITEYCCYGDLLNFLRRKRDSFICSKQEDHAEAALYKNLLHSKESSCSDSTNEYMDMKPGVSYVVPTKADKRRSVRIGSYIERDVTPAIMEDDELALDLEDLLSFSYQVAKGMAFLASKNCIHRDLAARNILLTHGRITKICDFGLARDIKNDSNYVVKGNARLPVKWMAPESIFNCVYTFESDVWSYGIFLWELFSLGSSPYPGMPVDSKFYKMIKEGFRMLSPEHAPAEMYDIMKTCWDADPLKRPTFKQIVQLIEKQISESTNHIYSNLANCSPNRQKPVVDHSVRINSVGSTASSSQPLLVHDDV
SMILES,IC50 (c-kit kinase) [µM],IC50 (c-kit mutant D816V) [µM]
"Cc1cc2c(N3CCC(NS(=O)(=O)c4ccc(Cl)cc4)CC3)ncnc2[nH]1 [P-0728, 4-chloro-N-[1-(6-methyl-7H-pyrrolo[2,3-d]pyrimidin-4-yl)-4-piperidyl]benzenesulfonamide]",0.0001 to 1,0.0001 to 1
"Cc1ncc(-c2cc3c(N4CCN(C(=O)Nc5ccc(OC(F)(F)F)cc5)CC4)ncnc3[nH]2)s1 [P-0080, 4-[6-(2-methylthiazol-5-yl)-7H-pyrrolo[2,3-d]pyrimidin-4-yl]-N-[4-(trifluoromethoxy)phenyl]piperazine-1-carboxamide]",0.0001 to 1,0.0001 to 1
"C[C@H](NC(=O)N1CCN(c2ncnc3[nH]c(-c4ccc(F)cc4)cc23)CC1)c1cccc(Cl)c1 [P-0027, N-[(1S)-1-(3-chlorophenyl)ethyl]-4-[6-(4-fluorophenyl)-7H-pyrrolo[2,3-d]pyrimidin-4-yl]piperazine-1-carboxamide]",10 to 200,0.0001 to 1
"C[C@@H]1CN(c2ncnc3[nH]c(-c4ccncc4)cc23)CCN1C(=O)NCc1ccc(Cl)cc1 [P-0064, (2R)-N-[(4-chlorophenyl)methyl]-2-methyl-4-[6-(4-pyridyl)-7H-pyrrolo[2,3-d]pyrimidin-4-yl]piperazine-1-carboxamide]",0.0001 to 1,0.0001 to 1
"Cc1cc2c(N3CCN(C(=O)N[C@@H](C)c4cccc(Cl)c4)[C@H](C)C3)ncnc2[nH]1 [P-0647, (2R)-N-[(1S)-1-(3-chlorophenyl)ethyl]-2-methyl-4-(6-methyl-7H-pyrrolo[2,3-d]pyrimidin-4-yl)piperazine-1-carboxamide]",1 to 10,0.0001 to 1
"Cc1cc2c(N3CCN(C(=O)N[C@@H](C)c4cccc(F)c4)[C@H](C)C3)ncnc2[nH]1 [P-0684, (2R)-N-[(1S)-1-(3-fluorophenyl)ethyl]-2-methyl-4-(6-methyl-7H-pyrrolo[2,3-d]pyrimidin-4-yl)piperazine-1-carboxamide]",10 to 200,0.0001 to 1
"CCOC(=O)N1CCN(c2cc3ncnc(N4CCN(C(=O)N[C@@H](C)c5cccc(OC)c5)C(C)(C)C4)c3s2)CC1 [P-0681, ethyl 4-[4-[4-[[(1S)-1-(3-methoxyphenyl)ethyl]carbamoyl]-3,3-dimethyl-piperazin-1-yl]thieno[3,2-d]pyrimidin-6-yl]piperazine-1-carboxylate]",1 to 10,0.0001 to 1
"O=C(NCc1ccc(F)cc1)N1CCN(c2ncnc3[nH]c(-c4ccc(Cl)cc4)cc23)CC1 [P-0213, 4-[6-(4-chlorophenyl)-7H-pyrrolo[2,3-d]pyrimidin-4-yl]-N-[(4-fluorophenyl)methyl]piperazine-1-carboxamide]",10 to 200,10 to 200
"Cc1cc2c(-c3ccc(NS(=O)(=O)c4ccc(OC(F)F)cc4)cc3)ncnc2[nH]1 [P-0329, 4-(difluoromethoxy)-N-[4-(6-methyl-7H-pyrrolo[2,3-d]pyrimidin-4-yl)phenyl]benzenesulfonamide]",10 to 200,10 to 200
"COc1cccc([C@H](C)NC(=O)N2CCN(c3ncnc4cc(N5CCOCC5)sc34)CC2(C)C)c1 [P-0560, N-[(1S)-1-(3-methoxyphenyl)ethyl]-2,2-dimethyl-4-(6-morpholinothieno[3,2-d]pyrimidin-4-yl)piperazine-1-carboxamide]",1 to 10,0.0001 to 1
"NC(=O)N1CCN(c2ncnc3[nH]c(-c4cccnc4)cc23)CC1 [P-0130, 4-[6-(3-pyridyl)-7H-pyrrolo[2,3-d]pyrimidin-4-yl]piperazine-1-carboxamide]",10 to 200,1 to 10
"CCc1ccc(S(=O)(=O)NC2CCN(c3ncnc4[nH]c(C)cc34)CC2)cc1 [P-0674, 4-ethyl-N-[1-(6-methyl-7H-pyrrolo[2,3-d]pyrimidin-4-yl)-4-piperidyl]benzenesulfonamide]",10 to 200,1 to 10
"C[C@@H]1CN(c2ncnc3cc(-c4ccc(F)cc4)sc23)CCN1C(=O)N[C@H](C)c1ccc(F)cc1 [P-0606, (2R)-N-[(1R)-1-(4-fluorophenyl)ethyl]-4-[6-(4-fluorophenyl)thieno[3,2-d]pyrimidin-4-yl]-2-methyl-piperazine-1-carboxamide]",10 to 200,1 to 10
"COCCOc1cc2ncnc(-c3ccc(NS(=O)(=O)C4CC4)cc3F)c2cc1OCCOC [P-0263, N-[4-[6,7-bis(2-methoxyethoxy)quinazolin-4-yl]-3-fluoro-phenyl]cyclopropanesulfonamide]",10 to 200,0.0001 to 1
"CC(C)(C)OC(=O)N1CCN(c2ncnc3[nH]c(-c4cccnc4)cc23)CC1 [P-0232, tert-butyl 4-[6-(3-pyridyl)-7H-pyrrolo[2,3-d]pyrimidin-4-yl]piperazine-1-carboxylate]",10 to 200,10 to 200
"Cc1cc2c(-c3ccc(NS(=O)(=O)c4ccc(F)cc4)c(F)c3)ncnc2[nH]1 [P-0346, 4-fluoro-N-[2-fluoro-4-(6-methyl-7H-pyrrolo[2,3-d]pyrimidin-4-yl)phenyl]benzenesulfonamide]",1 to 10,1 to 10
"COc1cccc([C@H](C)NC(=O)N2CCN(c3ncnc4cc(-c5ccc(F)cc5)sc34)C[C@H]2C)c1 [P-0600, (2R)-4-[6-(4-fluorophenyl)thieno[3,2-d]pyrimidin-4-yl]-N-[(1S)-1-(3-methoxyphenyl)ethyl]-2-methyl-piperazine-1-carboxamide]",10 to 200,0.0001 to 1
"CC1(C)C=C(c2cc3c(-c4ccc(NS(=O)(=O)c5ccc(F)cc5)cc4)ncnc3[nH]2)CC(C)(C)N1 [P-0295, 4-fluoro-N-[4-[6-(2,2,6,6-tetramethyl-1,3-dihydropyridin-4-yl)-7H-pyrrolo[2,3-d]pyrimidin-4-yl]phenyl]benzenesulfonamide]",1 to 10,0.0001 to 1
"Cc1cc2c(-c3ccc(NS(=O)(=O)c4ccc(OC(F)F)cc4)cc3F)ncnc2[nH]1 [P-0366, 4-(difluoromethoxy)-N-[3-fluoro-4-(6-methyl-7H-pyrrolo[2,3-d]pyrimidin-4-yl)phenyl]benzenesulfonamide]",1 to 10,1 to 10
"COc1cc2c(-c3ccc(NS(C)(=O)=O)cc3F)ncnc2cc1OCCCN1CCCCC1 [P-0258, N-[3-fluoro-4-[6-methoxy-7-[3-(1-piperidyl)propoxy]quinazolin-4-yl]phenyl]methanesulfonamide]",1 to 10,0.0001 to 1
"NC1CCN(c2ncnc3[nH]ccc23)CC1 [P-0541, 1-(7H-pyrrolo[2,3-d]pyrimidin-4-yl)piperidin-4-amine]",10 to 200,1 to 10
"Cc1cc2c(-c3ccc(NS(=O)(=O)c4ccc(OC(C)C)cc4)cc3)ncnc2[nH]1 [P-0311, 4-isopropoxy-N-[4-(6-methyl-7H-pyrrolo[2,3-d]pyrimidin-4-yl)phenyl]benzenesulfonamide]",10 to 200,10 to 200
"COc1ccc(S(=O)(=O)Nc2ccc(-c3ncnc4[nH]c(C)cc34)cc2)cc1F [P-0325, 3-fluoro-4-methoxy-N-[4-(6-methyl-7H-pyrrolo[2,3-d]pyrimidin-4-yl)phenyl]benzenesulfonamide]",10 to 200,1 to 10
"COc1ccc(NC(=O)N2CCN(c3ncnc4[nH]c(-c5ccncc5)cc34)C[C@H]2C)cn1 [P-0057, (2R)-N-(6-methoxy-3-pyridyl)-2-methyl-4-[6-(4-pyridyl)-7H-pyrrolo[2,3-d]pyrimidin-4-yl]piperazine-1-carboxamide]",1 to 10,0.0001 to 1
"O=S(=O)(Nc1ccc(-c2ncnc3[nH]c(-c4ccc(F)cc4)cc23)cc1)c1ccc(F)cc1 [P-0404, 4-fluoro-N-[4-[6-(4-fluorophenyl)-7H-pyrrolo[2,3-d]pyrimidin-4-yl]phenyl]benzenesulfonamide]",0.0001 to 1,0.0001 to 1
"Cc1nn(C)cc1-c1cc2ncnc(C3CCN(C(=O)NCc4ccc(F)cc4)CC3)c2s1 [P-0604, 4-[6-(1,3-dimethylpyrazol-4-yl)thieno[3,2-d]pyrimidin-4-yl]-N-[(4-fluorophenyl)methyl]piperidine-1-carboxamide]",1 to 10,0.0001 to 1
"Cc1ccc(S(=O)(=O)Nc2ccc(-c3ncnc4cc(C5=CCNCC5)sc34)cc2)cc1 [P-0611, 4-methyl-N-[4-[6-(1,2,3,6-tetrahydropyridin-4-yl)thieno[3,2-d]pyrimidin-4-yl]phenyl]benzenesulfonamide]",0.0001 to 1,0.0001 to 1
"COc1cc([C@H](C)NC(=O)N2CCN(c3ncnc4[nH]c(-c5ccc(F)cc5)cc34)C[C@H]2C)ccc1F [P-0004, (2R)-N-[(1S)-1-(4-fluoro-3-methoxy-phenyl)ethyl]-4-[6-(4-fluorophenyl)-7H-pyrrolo[2,3-d]pyrimidin-4-yl]-2-methyl-piperazine-1-carboxamide]",10 to 200,0.0001 to 1
"O=C(Nc1ccccc1Cl)N1CCN(c2ncnc3[nH]c(-c4cccnc4)cc23)CC1 [P-0219, N-(2-chlorophenyl)-4-[6-(3-pyridyl)-7H-pyrrolo[2,3-d]pyrimidin-4-yl]piperazine-1-carboxamide]",10 to 200,1 to 10
"Cc1cc2c(-c3ccc(S(=O)(=O)Nc4ccc(F)cc4)c(F)c3)ncnc2[nH]1 [P-0343, 2-fluoro-N-(4-fluorophenyl)-4-(6-methyl-7H-pyrrolo[2,3-d]pyrimidin-4-yl)benzenesulfonamide]",10 to 200,1 to 10

# Source: US10227357B2, “Compounds and methods for kinase modulation, and indications therefor” (Plexxikon Inc., priority 2012, dated 2019)
